Laboratory results as given in PubChem BioAssay (NCI).
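Following 48 hours of exposure in 96-well plates, responses at five concentrations were used to interpolate endpoints linearly. Abbreviation: GI50, concentration required for 50% inhibition of growth. TGI: total growth inhibition.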

What was measured:
Experiment in all cases: DTP human tumour cell line panel, 48 h
NCI-H522 lung = tested on: NCI-H522 lung
SF-295 CNS = tested on: SF-295 CNS
IGROV1 ovarian = tested on: IGROV1 ovarian
ACHN renal = tested on: ACHN renal
NCI-H23 lung = tested on: NCI-H23 lung
OVCAR-3 ovarian = tested on: OVCAR-3 ovarian
SK-MEL-2 melanoma = tested on: SK-MEL-2 melanoma
HCT-116 colon = tested on: HCT-116 colon
SR leukemia = tested on: SR leukemia

Structure (SMILES) | TGI (NCI-H522 lung) | TGI (SF-295 CNS) | TGI (IGROV1 ovarian) | TGI (ACHN renal) | TGI (NCI-H23 lung) | TGI (OVCAR-3 ovarian) | TGI (SK-MEL-2 melanoma) | GI50 (NCI-H522 lung) | GI50 (IGROV1 ovarian) | GI50 (ACHN renal) | GI50 (NCI-H23 lung) | GI50 (HCT-116 colon) | TGI (HCT-116 colon) | GI50 (OVCAR-3 ovarian) | GI50 (SK-MEL-2 melanoma) | TGI (SR leukemia) | GI50 (SF-295 CNS) | GI50 (SR leukemia)
O=c1[nH]c(=O)n(C2CC(O)C(CO)O2)cc1COCC(F)(F)F (centres undefined) | > 100 µM | > 100 µM | > 100 µM | > 100 µM | > 100 µM | > 100 µM | > 100 µM |  |  |  |  |  |  |  |  |  |  | 
CC12OC(C(=O)C13CCC3)C1C(=O)c3ccc4c(ccc5ccccc54)c3C(=O)C12 (centres undefined) | 35.1 µM | 0.0612 µM | > 100 µM | 21.4 µM | 23.6 µM | 2.47 µM | > 100 µM | 13 µM | 21.4 µM | 6.78 µM | 10.5 µM | 11.4 µM | 24.8 µM | 0.388 µM | 19.4 µM |  |  | 
COC(=O)/C(=C/c1ccc(OC)cc1)C(C(=O)O)=C1CCCCC1 | > 100 µM | > 100 µM | > 100 µM | > 100 µM | > 100 µM |  | > 100 µM |  |  |  |  |  | > 100 µM |  |  | > 100 µM |  | 
O=C1C=C(Nc2ccc(S(=O)(=O)Nc3ncccn3)cc2)c2ccccc2C1=O | 32 µM | 35 µM | 58 µM | 70.4 µM | 34.1 µM | 30.5 µM | 85.2 µM |  |  |  |  |  | 35.9 µM |  |  | 95.9 µM |  | 
c1cc[c]([Sn]([O]c2cccc3cccnc23)([O]c2cccc3cccnc23)[c]2ccccc2)cc1 |  | 3.22 µM | 3.06 µM | 0.396 µM | 0.5 µM |  |  |  | 1.55 µM | 0.207 µM | 0.209 µM | 0.199 µM | 0.393 µM |  |  |  | 1.72 µM | 
COC(=O)N/N=C(\C)C(CN(C)C)C(c1ccccc1)c1c(O)c2ccccc2oc1=O (centres undefined) | > 100 µM | > 100 µM | > 100 µM | > 100 µM | > 100 µM |  | > 100 µM |  |  |  |  |  | > 100 µM |  |  | > 100 µM |  | 
CCOC(=O)C1=C(C(=O)OCC)C2(c3ccccc3)N(O1)c1ccccc1C2(C)C (centres undefined) | 63.8 µM | > 100 µM | > 100 µM |  | > 100 µM | > 100 µM | > 100 µM |  |  |  |  |  | > 100 µM |  |  |  |  | 
C/C(O)=C(\N=O)C(=O)NCc1ccccc1 | > 100 µM | > 100 µM | > 100 µM | > 100 µM | > 100 µM | > 100 µM | > 100 µM |  |  |  |  |  | > 100 µM |  |  | > 100 µM |  | 
N#C/C(=C\c1ccccc1)C(NO)Nc1ccccc1 (centres undefined) | > 100 µM | > 100 µM | > 100 µM | > 100 µM | > 100 µM | > 100 µM | > 100 µM |  |  |  |  |  | > 100 µM |  |  | > 100 µM |  | 
CCC[CH2][Sn]([CH2]CCC)([O]C(=O)c1cccc(F)c1F)[O]C(=O)c1cccc(F)c1F | 0.277 µM | 2.85 µM | 2.76 µM | 2.55 µM | 1.89 µM | 2.68 µM | 1.46 µM | 0.133 µM | 1.4 µM | 1.28 µM | 0.614 µM | 1.2 µM | 2.43 µM | 1.37 µM | 0.41 µM | 3.49 µM | 1.52 µM | 0.371 µM
COc1ccc2c(c1)CCc1c(CO)c(COC(=O)NC(C)C)n(C)c1-2 | 14.4 µM | 57.7 µM | 48.3 µM | 53.1 µM | 22.1 µM | 54.9 µM | 58 µM |  |  |  |  |  | 11.6 µM |  |  |  |  | 
NC(=S)N/N=C1/CN(c2ccc(Cl)c(Cl)c2)CC(=O)C1c1nc2ccccc2s1 (centres undefined) | > 100 µM | > 100 µM | > 100 µM | > 100 µM | > 100 µM | > 100 µM | > 100 µM |  |  |  |  |  | > 100 µM |  |  |  |  | 
CCN(CC)c1ccc(N=Nc2ccc(-c3nc4cccn(C)c-4n3)cc2)cc1 | 19.9 µM | 19.4 µM | 25 µM |  | 34.7 µM | 23.1 µM | 35.3 µM |  |  |  |  |  | 15.6 µM |  |  | 14.8 µM |  | 
C1CC2=C(C1)C1=S(S2)SC2=C1CCC2 | > 100 µM | > 100 µM | > 100 µM | > 100 µM | > 100 µM | > 100 µM | > 100 µM |  |  |  |  |  | > 100 µM |  |  |  |  | 
COC(=O)CC(=O)NCC1=CCC(=O)CC1 | > 100 µM | > 100 µM | > 100 µM |  | > 100 µM | > 100 µM | > 100 µM |  |  |  |  |  | > 100 µM |  |  |  |  | 
